From US8372967B2, “Compounds and methods for modulating expression of GCCR” (Isis Pharmaceuticals, Inc., priority 2006, dated 2013)
Strand notation (5' to 3'): a small letter for the sugar, then the base; units joined by * are phosphorothioate-linked, units joined directly phosphodiester-linked; [ ] holds rarer units or linkages, { } end groups; capitals alone tell only the bases. e = 2'-O-(2-methoxyethyl) (MOE); [5mC] = 5-methylcytosine; d = 2'-deoxy (DNA)

tested on: PCSK9 mRNA; type: cell-based, human; conditions: Hep3B cells, 100 nM, relative to untreated control cells
Procedure: When cells reached appropriate confluency, they were treated with oligonucleotide using LIPOFECTIN® as described. […] Cells were treated and data were obtained in duplicate or triplicate. […] Cells were harvested 16-24 hours after oligonucleotide treatment.
Prior to quantitative PCR analysis, primer-probe sets specific to the target gene being measured were evaluated for their ability to be “multiplexed” with a GAPDH amplification reaction. After isolation the RNA is subjected to sequential reverse transcriptase (RT) reaction and real-time PCR, both of which are performed in the same well. RT and PCR reagents were obtained from Invitrogen Life Technologies (Carlsbad, Calif.). […] The RT reaction was carried out by incubation for 30 minutes at 48° C. Following a 10 minute incubation at 95° C. to activate the PLATIN 9M® Taq, 40 cycles of a two-step PCR protocol were carried out: 95° C. for 15 seconds (denaturation) followed by 60° C. for 1.5 minutes (annealing/extension).
170 μL of RiboGreen® working reagent (RiboGreen® reagent diluted 1:350 in 10 mM Tris-HCl, 1 mM EDTA, pH 7.5) was pipetted into a 96-well plate containing 30 μL purified cellular RNA. The plate was read in a CytoFluor® 4000 (PE Applied Biosystems) with excitation at 485 nm and emission at 530 nm.
Short antisense compounds targeted to a PCSK9 nucleic acid were tested for their effects on PCSK9 mRNA in vitro. The Isis No, gapmer motif and SEQ ID NO of each short antisense compound are shown again in Table 75. Cultured Hep3B cells were treated with 100 nM of short antisense compound. 5-10-5 MOE gapmers targeted to a PCSK9 nucleic acid were used as positive controls. After the treatment period, RNA was isolated from the cells and PCSK9 mRNA levels were measured by quantitative real-time PCR, as described herein. PCSK9 mRNA levels were adjusted according to total RNA content as measured by RIBOGREEN®. Results are presented in Table 75 as percent inhibition of PCSK9 (% Inhib), relative to untreated control cells.

Row | Substance | % Inhibition Range
1 | 400318 (antisense e[5mC]*e[5mC]*dT*dA*dT*dG*dA*dG*dG*dG*dT*dG*e[5mC]*e[5mC]) [compound 400318] | 20-30%
2 | 400328 (antisense eA*e[5mC]*dG*dT*dG*dG*dG*d[5mC]*dA*dG*d[5mC]*dA*eG*e[5mC]) [compound 400328] | 10-20%
3 | 400329 (antisense e[5mC]*eA*d[5mC]*dG*dT*dG*dG*dG*d[5mC]*dA*dG*d[5mC]*eA*eG) [compound 400329] | 10-20%
4 | 400349 (antisense e[5mC]*eT*dG*dG*dA*dG*d[5mC]*dA*dG*d[5mC]*dT*d[5mC]*eA*eG) [compound 400349] | 10-20%
5 | 400350 (antisense e[5mC]*e[5mC]*d[5mC]*dT*d[5mC]*dA*d[5mC]*d[5mC]*d[5mC]*d[5mC]*d[5mC]*dA*eA*eA) [compound 400350] | 10-20%
6 | 400351 (antisense eA*e[5mC]*d[5mC]*d[5mC]*dT*d[5mC]*dA*d[5mC]*d[5mC]*d[5mC]*d[5mC]*d[5mC]*eA*eA) [compound 400351] | 10-20%
7 | 400354 (antisense eG*eA*d[5mC]*dA*d[5mC]*d[5mC]*d[5mC]*dT*d[5mC]*dA*d[5mC]*d[5mC]*e[5mC]*e[5mC]) [compound 400354] | 10-20%
8 | 400358 (antisense eA*eT*dG*dG*d[5mC]*dA*dG*d[5mC]*dA*dG*dG*dA*eA*eG) [compound 400358] | 10-20%
9 | 400360 (antisense eG*e[5mC]*dA*dT*dG*dG*d[5mC]*dA*dG*d[5mC]*dA*dG*eG*eA) [compound 400360] | 30-40%
10 | 400362 (antisense e[5mC]*eG*dG*d[5mC]*dA*dG*d[5mC]*dA*dG*dA*dT*dG*eG*e[5mC]) [compound 400362] | 10-20%
11 | 400365 (antisense e[5mC]*eT*d[5mC]*d[5mC]*dG*dG*d[5mC]*dA*dG*d[5mC]*dA*dG*eA*eT) [compound 400365] | 20-30%
12 | 400366 (antisense eG*e[5mC]*dT*d[5mC]*d[5mC]*dG*dG*d[5mC]*dA*dG*d[5mC]*dA*eG*eA) [compound 400366] | 10-20%
13 | 400367 (antisense eG*eG*d[5mC]*dT*d[5mC]*d[5mC]*dG*dG*d[5mC]*dA*dG*d[5mC]*eA*eG) [compound 400367] | 10-20%
14 | 400368 (antisense e[5mC]*eG*dG*d[5mC]*dT*d[5mC]*d[5mC]*dG*dG*d[5mC]*dA*dG*e[5mC]*eA) [compound 400368] | 10-20%
15 | 400370 (antisense eG*e[5mC]*d[5mC]*dG*dG*d[5mC]*dT*d[5mC]*d[5mC]*dG*dG*d[5mC]*eA*eG) [compound 400370] | 10-20%

same assay, conditions: Hep3B cells, 100 nM, relative to untreated control cells, 0 = no reduction observed

Row | Substance | % Inhib
16 | 400318 (antisense e[5mC]*e[5mC]*dT*dA*dT*dG*dA*dG*dG*dG*dT*dG*e[5mC]*e[5mC]) [compound 400318] | 26%
17 | 400319 (antisense e[5mC]*eG*dA*dA*dT*dA*dA*dA*d[5mC]*dT*d[5mC]*d[5mC]*eA*eG) [compound 400319] | 0%
18 | 400320 (antisense e[5mC]*e[5mC]*dG*dA*dA*dT*dA*dA*dA*d[5mC]*dT*d[5mC]*e[5mC]*eA) [compound 400320] | 0%
19 | 400321 (antisense eT*e[5mC]*d[5mC]*dG*dA*dA*dT*dA*dA*dA*d[5mC]*dT*e[5mC]*e[5mC]) [compound 400321] | 0%
20 | 400322 (antisense eT*eT*d[5mC]*d[5mC]*dG*dA*dA*dT*dA*dA*dA*d[5mC]*eT*e[5mC]) [compound 400322] | 0%
21 | 400323 (antisense eG*e[5mC]*d[5mC]*dA*dG*dG*dG*dG*d[5mC]*dA*dG*d[5mC]*eA*eG) [compound 400323] | 0%
22 | 400324 (antisense eG*eA*dG*dT*dA*dG*dA*dG*dG*d[5mC]*dA*dG*eG*e[5mC]) [compound 400324] | 7%
23 | 400325 (antisense e[5mC]*e[5mC]*d[5mC]*d[5mC]*dA*dA*dA*dG*dT*d[5mC]*d[5mC]*d[5mC]*e[5mC]*eA) [compound 400325] | 4%
24 | 400326 (antisense eT*e[5mC]*d[5mC]*d[5mC]*d[5mC]*dA*dA*dA*dG*dT*d[5mC]*d[5mC]*e[5mC]*e[5mC]) [compound 400326] | 0%
25 | 400328 (antisense eA*e[5mC]*dG*dT*dG*dG*dG*d[5mC]*dA*dG*d[5mC]*dA*eG*e[5mC]) [compound 400328] | 13%
26 | 400329 (antisense e[5mC]*eA*d[5mC]*dG*dT*dG*dG*dG*d[5mC]*dA*dG*d[5mC]*eA*eG) [compound 400329] | 14%
27 | 400332 (antisense e[5mC]*eA*dG*dG*dG*dA*dA*d[5mC]*d[5mC]*dA*dG*dG*e[5mC]*e[5mC]) [compound 400332] | 0%
28 | 400333 (antisense eT*e[5mC]*dA*dG*dG*dG*dA*dA*d[5mC]*d[5mC]*dA*dG*eG*e[5mC]) [compound 400333] | 0%
29 | 400334 (antisense e[5mC]*eT*d[5mC]*dA*dG*dG*dG*dA*dA*d[5mC]*d[5mC]*dA*eG*eG) [compound 400334] | 0%
30 | 400335 (antisense e[5mC]*e[5mC]*dT*d[5mC]*dA*dG*dG*dG*dA*dA*d[5mC]*d[5mC]*eA*eG) [compound 400335] | 0%
31 | 400336 (antisense eT*e[5mC]*d[5mC]*dT*d[5mC]*dA*dG*dG*dG*dA*dA*d[5mC]*e[5mC]*eA) [compound 400336] | 4%
32 | 400337 (antisense eG*eT*d[5mC]*d[5mC]*dT*d[5mC]*dA*dG*dG*dG*dA*dA*e[5mC]*e[5mC]) [compound 400337] | 0%
33 | 400338 (antisense eG*eG*dT*d[5mC]*d[5mC]*dT*d[5mC]*dA*dG*dG*dG*dA*eA*e[5mC]) [compound 400338] | 9%
34 | 400339 (antisense eT*eG*dG*dT*d[5mC]*d[5mC]*dT*d[5mC]*dA*dG*dG*dG*eA*eA) [compound 400339] | 0%
35 | 400340 (antisense e[5mC]*eT*dG*dG*dT*d[5mC]*d[5mC]*dT*d[5mC]*dA*dG*dG*eG*eA) [compound 400340] | 0%
36 | 400341 (antisense eG*e[5mC]*dT*dG*dG*dT*d[5mC]*d[5mC]*dT*d[5mC]*dA*dG*eG*eG) [compound 400341] | 0%
37 | 400342 (antisense eG*eT*dG*d[5mC]*dT*dG*dG*dG*dG*dG*dG*d[5mC]*eA*eG) [compound 400342] | 0%
38 | 400343 (antisense eG*eG*dT*dG*d[5mC]*dT*dG*dG*dG*dG*dG*dG*e[5mC]*eA) [compound 400343] | 0%
39 | 400344 (antisense eG*eG*dG*dT*dG*d[5mC]*dT*dG*dG*dG*dG*dG*eG*e[5mC]) [compound 400344] | 0%

Row | Substance | % Inhib
40 | 400345 (antisense eT*eG*dG*dG*dT*dG*d[5mC]*dT*dG*dG*dG*dG*eG*eG) [compound 400345] | 0%
41 | 400346 (antisense eG*eA*dG*d[5mC]*dA*dG*d[5mC]*dT*d[5mC]*dA*dG*d[5mC]*eA*eG) [compound 400346] | 5%
42 | 400347 (antisense eG*eG*dA*dG*d[5mC]*dA*dG*d[5mC]*dT*d[5mC]*dA*dG*e[5mC]*eA) [compound 400347] | 0%
43 | 400348 (antisense eT*eG*dG*dA*dG*d[5mC]*dA*dG*d[5mC]*dT*d[5mC]*dA*eG*e[5mC]) [compound 400348] | 0%
44 | 400349 (antisense e[5mC]*eT*dG*dG*dA*dG*d[5mC]*dA*dG*d[5mC]*dT*d[5mC]*eA*eG) [compound 400349] | 13%
45 | 400350 (antisense e[5mC]*e[5mC]*d[5mC]*dT*d[5mC]*dA*d[5mC]*d[5mC]*d[5mC]*d[5mC]*d[5mC]*dA*eA*eA) [compound 400350] | 15%
46 | 400351 (antisense eA*e[5mC]*d[5mC]*d[5mC]*dT*d[5mC]*dA*d[5mC]*d[5mC]*d[5mC]*d[5mC]*d[5mC]*eA*eA) [compound 400351] | 14%
47 | 400354 (antisense eG*eA*d[5mC]*dA*d[5mC]*d[5mC]*d[5mC]*dT*d[5mC]*dA*d[5mC]*d[5mC]*e[5mC]*e[5mC]) [compound 400354] | 19%
48 | 400355 (antisense eA*eG*dA*d[5mC]*dA*d[5mC]*d[5mC]*d[5mC]*dT*d[5mC]*dA*d[5mC]*e[5mC]*e[5mC]) [compound 400355] | 0%
49 | 400356 (antisense eT*eA*dG*dA*d[5mC]*dA*d[5mC]*d[5mC]*d[5mC]*dT*d[5mC]*dA*e[5mC]*e[5mC]) [compound 400356] | 0%
50 | 400357 (antisense eT*eG*dG*d[5mC]*dA*dG*d[5mC]*dA*dG*dG*dA*dA*eG*e[5mC]) [compound 400357] | 0%
51 | 400358 (antisense eA*eT*dG*dG*d[5mC]*dA*dG*d[5mC]*dA*dG*dG*dA*eA*eG) [compound 400358] | 12%
52 | 400359 (antisense e[5mC]*eA*dT*dG*dG*d[5mC]*dA*dG*d[5mC]*dA*dG*dG*eA*eA) [compound 400359] | 0%
53 | 400360 (antisense eG*e[5mC]*dA*dT*dG*dG*d[5mC]*dA*dG*d[5mC]*dA*dG*eG*eA) [compound 400360] | 38%
54 | 400361 (antisense eG*eG*d[5mC]*dA*dG*d[5mC]*dA*dG*dA*dT*dG*dG*e[5mC]*eA) [compound 400361] | 2%
55 | 400362 (antisense e[5mC]*eG*dG*d[5mC]*dA*dG*d[5mC]*dA*dG*dA*dT*dG*eG*e[5mC]) [compound 400362] | 16%
56 | 400363 (antisense e[5mC]*e[5mC]*dG*dG*d[5mC]*dA*dG*d[5mC]*dA*dG*dA*dT*eG*eG) [compound 400363] | 8%
57 | 400364 (antisense eT*e[5mC]*d[5mC]*dG*dG*d[5mC]*dA*dG*d[5mC]*dA*dG*dA*eT*eG) [compound 400364] | 0%
58 | 400365 (antisense e[5mC]*eT*d[5mC]*d[5mC]*dG*dG*d[5mC]*dA*dG*d[5mC]*dA*dG*eA*eT) [compound 400365] | 25%
59 | 400366 (antisense eG*e[5mC]*dT*d[5mC]*d[5mC]*dG*dG*d[5mC]*dA*dG*d[5mC]*dA*eG*eA) [compound 400366] | 15%
60 | 400367 (antisense eG*eG*d[5mC]*dT*d[5mC]*d[5mC]*dG*dG*d[5mC]*dA*dG*d[5mC]*eA*eG) [compound 400367] | 12%
61 | 400368 (antisense e[5mC]*eG*dG*d[5mC]*dT*d[5mC]*d[5mC]*dG*dG*d[5mC]*dA*dG*e[5mC]*eA) [compound 400368] | 11%
62 | 400369 (antisense e[5mC]*e[5mC]*dG*dG*d[5mC]*dT*d[5mC]*d[5mC]*dG*dG*d[5mC]*dA*eG*e[5mC]) [compound 400369] | 0%
63 | 400370 (antisense eG*e[5mC]*d[5mC]*dG*dG*d[5mC]*dT*d[5mC]*d[5mC]*dG*dG*d[5mC]*eA*eG) [compound 400370] | 13%
